# Measurements: patent US20260284010A1, “SOLID DISPERSION OF P2X4 INHIBITOR, AND PREPARATION METHOD THEREFOR AND USE THEREOF” (priority 2023, published 2026)
# Where two headings read alike, the source gives them in different places.
# Columns and labels:
# [1] = Dynamic solubility test (two-step dissolution, SGF then FaSSIF) of solid dispersions; assay type: physicochemical; details: 37° C.
# Protocol: 20 mg each of the solid dispersion products from formulations 1 to 9 in Example 4 was taken and added with 3 mL of SGF (target concentration of API: […]). The mixture was stirred at 37° C. and 500 rpm for 0.25 hours and 0.5 hours, respectively, followed by sampling. 3 mL of 2× FaSSIF was then added to adjust the solution pH to approximately 6.5. The mixture was stirred for another 0.25 hours, 0.5 hours, 1 hour, and 1.5 hours, respectively, followed by sampling. The collected samples were analyzed by UPLC, and the final solution pH was measured.
# [2] = Solubilization test of compound 1 with surfactants in FaSSIF; assay type: physicochemical; details: for solubility at 0.5 h / solubility at 1 h / solubility at 2 h / solubility at 4 h: 37° C., read-out: Concentration of API in vehicle
# Protocol: 50 mg of compound 1 was weighed into 5 mL of FaSSIF medium containing 5 mg of different surfactants (target concentration of API (compound 1):10 mg/mL). The mixture was shaken at 500 rpm and 37° C. 0.5 mL each of the suspension samples was taken at 0.5 hours, 1 hour, 2 hours, and 4 hours, respectively, centrifuged at 14,000 rpm for 5 minutes, and the supernatant was diluted and analyzed by HPLC.
# [3] = FaSSIF (pH 6.5) with 5 mg Cremophor EL, 50 mg API in 5 mL
# [4] = FaSSIF (pH 6.5) with 5 mg Cremophor RH40, 50 mg API in 5 mL
# [5] = FaSSIF (pH 6.5) with 5 mg SLS, 50 mg API in 5 mL
# [6] = FaSSIF (pH 6.5) with 5 mg Solutol HS15, 50 mg API in 5 mL
# [7] = FaSSIF (pH 6.5) with 5 mg VE-TPGS, 50 mg API in 5 mL
# [8] = FaSSIF (pH 6.5), no surfactant, 50 mg API in 5 mL
# [9] = fassif with poloxamer 188, FaSSIF (pH 6.5) with 5 mg Poloxamer 188, 50 mg API in 5 mL
# [10] = fassif with poloxamer 407, FaSSIF (pH 6.5) with 5 mg Poloxamer 407, 50 mg API in 5 mL
# [11] = fassif with tween 80, FaSSIF (pH 6.5) with 5 mg Tween 80, 50 mg API in 5 mL
smiles,measurement,setting,value
NS(=O)(=O)c1cc(NC(=O)Cc2ccccc2Cl)cc2nn(C(F)F)cc12 [compound 1],Solubility of API in vehicle,"[1]; Step 1 (SGF, pH 1.6), 0.25 h, target API 2 mg/mL",33.7 µg/mL
same,Solubility of API in vehicle,"[1]; Step 1 (SGF, pH 1.6), 0.5 h, target API 2 mg/mL",65.1 µg/mL
same,Solubility of API in vehicle,"[1]; Step 2 (FaSSIF, pH 6.5), 0.75 h",13.7 µg/mL
same,Solubility of API in vehicle,"[1]; Step 2 (FaSSIF, pH 6.5), 1.0 h",33.5 µg/mL
same,Solubility of API in vehicle,"[1]; Step 2 (FaSSIF, pH 6.5), 2.0 h",18.0 µg/mL
same,Solubility of API in vehicle,"[1]; Step 2 (FaSSIF, pH 6.5), […]",15.0 µg/mL
same,solubility at 0.5 h,[2]; [3],1570 µg/mL
same,solubility at 1 h,[2]; [3],1600 µg/mL
same,solubility at 2 h,[2]; [3],1540 µg/mL
same,solubility at 4 h,[2]; [3],1510 µg/mL
same,solubility at 0.5 h,[2]; [4],1580 µg/mL
same,solubility at 1 h,[2]; [4],1600 µg/mL
same,solubility at 2 h,[2]; [4],1570 µg/mL
same,solubility at 4 h,[2]; [4],1540 µg/mL
same,solubility at 0.5 h,[2]; [5],614 µg/mL
same,solubility at 1 h,[2]; [5],622 µg/mL
same,solubility at 2 h,[2]; [5],639 µg/mL
same,solubility at 4 h,[2]; [5],652 µg/mL
same,solubility at 0.5 h,[2]; [6],1470 µg/mL
same,solubility at 1 h,[2]; [6],1500 µg/mL
same,solubility at 2 h,[2]; [6],1480 µg/mL
same,solubility at 4 h,[2]; [6],1460 µg/mL
same,solubility at 0.5 h,[2]; [7],2110 µg/mL
same,solubility at 1 h,[2]; [7],2120 µg/mL
same,solubility at 2 h,[2]; [7],2090 µg/mL
same,solubility at 4 h,[2]; [7],2080 µg/mL
same,solubility at 0.5 h,[2]; [8],33.9 µg/mL
same,solubility at 1 h,[2]; [8],22.9 µg/mL
same,solubility at 2 h,[2]; [8],15.2 µg/mL
same,solubility at 4 h,[2]; [8],14.9 µg/mL
same,Solubility of compound 1 with surfactants,"[2]; FaSSIF with SLS, Cremophor EL, Cremophor RH40, VE-TPGS, Tween 80, Poloxamer 407, or Solutol HS15, in words",significantly improved
same,solubility at 0.5 h,[2]; [9],116 µg/mL
same,solubility at 1 h,[2]; [9],123 µg/mL
same,solubility at 2 h,[2]; [9],104 µg/mL
same,solubility at 4 h,[2]; [9],93.9 µg/mL
same,solubility at 0.5 h,[2]; [10],838 µg/mL
same,solubility at 1 h,[2]; [10],861 µg/mL
same,solubility at 2 h,[2]; [10],842 µg/mL
same,solubility at 4 h,[2]; [10],797 µg/mL
same,solubility at 0.5 h,[2]; [11],899 µg/mL
same,solubility at 1 h,[2]; [11],893 µg/mL
same,solubility at 2 h,[2]; [11],888 µg/mL
same,solubility at 4 h,[2]; [11],887 µg/mL
